Results on one compound are retold here after patent publication US7829309B1, “Cell culture performance with betaine” (Immunex Corporation, priority 2002, dated 2010).

Entries after “also recorded” stand apart in the source; their conditions may differ.

Assay [1] has as its system TNFR-Fc producing cells (CHO cell lines). Description: Betaine in 1 L bioreactor cultures of TNFR-Fc producing CHO cells at production osmolality. The assay is classed as cell-based, Chinese hamster. Here is the method: TNFR-Fc production in some CHO cell lines results in greater quantities of recombinant protein product but with lower viability than other cell lines during the final days of the run. The decreased viability correlates with increased protease activity in the culture supernatant, a result of dying cells releasing proteases into the media, which decreases stability of the final purified product. The current study was performed to determine if betaine could prolong viability at production osmolality (250-280 mOsm initial value).
The bioreactors used for this study were stirred vessels with a 1 liter working volume, with temperature, pH and dO2 control. The medium was serum-free with bicarbonate, IGF-1 (LongR3; GroPep, Australia), intralipids and peptones added. Betaine was added to 1 L bioreactor cultures of TNFR-Fc producing cells at 0, 10, 20, 30, and 40 mM with the osmolality of each culture adjusted to 270 to 280 mOsm with an appropriate amount of NaCl. The reactors were induced to express recombinant protein on day 2 by reducing the temperature and adding butyrate to 0.5 mM. Daily samples were taken for analysis of metabolic and productivity parameters.
The ability of induced cells to produce TNFR:Fc was not decreased in the presence of betaine.

Another assay concerns cell cultures. The conditions noted are these: physiological osmolality, 292 mOsm/kg; cited from earlier work.

For the compound `C[N+](C)(C)CC(=O)O` [betaine], the “cell viability (viable cells as percentage of living cells over total cells, trypan blue exclusion; VCD profiles)” value in assay [1] (betaine 0, 10, 20, 30, 40 mM, serum-free medium, osmolality 270 to 280 mOsm, most noticeable after day 5 (FIG. 1)) was “increases cell viability; also recorded: positive effect on cell viability”. In addition, the “concentration dependence of the viability effect” value in assay [1] (betaine 10-40 mM, higher concentrations than 30 mM did not increase viability as much) is reported as “titration effect up to 30 mM”. Moreover, the “ability of induced cells to produce TNFR:Fc” value in assay [1] (in the presence of betaine, induced on day 2 by reduced temperature and 0.5 mM butyrate) is listed as “not decreased”. Besides, the “increase in percentage of secreted recombinant polypeptide having the desired conformation (native conformation and dimerized)” value in assay [1] (in the presence of betaine, measured by hydrophobic interaction chromatography (HIC) against known controls) is given as 17.7%. In addition, in the assay on cell cultures, the “effect on cell culture growth or maximum viable cell concentration” value was “no effect”.
